Experiment [1] has as its system poly AH+-poly AH+ (poly A at pH 5) (RNA, polymer, adenine protonated at pH 5) A. Kind of experiment: fluorescence titration (λexc 355 nm). The settings on record: Na+ (sodium cacodylate, I = 0.05 M), emission of 2 did not change.
Experiment [2] has as its system poly A–poly U (RNA, polymer) A/U. In words: fluorescence titration (λexc 355 nm). To be noted: Na+ (sodium cacodylate, I = 0.05 M); pH 7.0; no emission change.
Experiment [3] shares this test system. In words: thermal denaturation, absorbance at 260 nm. The settings on record: Na+ (sodium cacodylate, I = 0.05 M); pH 7.0; no stabilisation (error ± 0.5 °C); same at pH 5.
For the next experiment, the system named is poly A (RNA, polymer) A. In words: fluorescence titration (λexc 355 nm), Scatchard. To be noted: Na+ (sodium cacodylate, I = 0.05 M); pH 7.0; n fixed at 0.2; polynucleotide as phosphates; per base.
The subject of experiment [4] is poly A–poly U (RNA, polymer) A/U. In words: fluorescence titration (λexc 355 nm), Scatchard. To be noted: Na+ (sodium cacodylate, I = 0.05 M); pH 5.0; n fixed at 0.2; polynucleotide as phosphates; per base.

Turning to `COC(=O)C(Cc1cc2cn(CCN3C(=O)c4ccccc4C3=O)c(=O)nc2[nH]1)NC(=O)CNC(=O)[C@@H](CCCCN)NC(=O)c1ccc(C(=O)NC(=N)N)[nH]1` (stereo partly shown), the binding result in experiment [1], in experiment [2] and in experiment [3] was “no” each time. Besides, the “log Ks” value in the experiment with poly A (RNA, polymer) A is 4.1; in experiment [4], 3.5.
Turning to `COC(=O)C(Cc1cc2cn(CCN3C(=O)c4ccccc4C3=O)c(=O)nc2[nH]1)NC(=O)CNC(=O)[C@H](N)CCCCNC(=O)c1ccc(C(=O)NC(=N)N)[nH]1` (stereo partly shown), the binding result in experiment [2] and in experiment [3] was “no” in each case.

Source of the values: publication PMC6149679 (2017).
